In the NIST ThermoML archive (doi:10.1021/je100260z):
Where “and” joins values, the source holds several entries; their conditions need not be identical. Equal entries are not always repeated.

Conditions: Crystal, Torsion effusion method

[F][Pb]([F])([F])[F] [lead(IV) fluoride]
Conditions | vapor or sublimation pressure [kPa]
603 K | 0.000566
612 K | 0.000677
622 K | 0.000844
628 K | 0.000844
631 K | 0.00097
634 K | 0.000942
635 K | 0.001062
638 K | 0.001116
639 K | 0.001116
644 K | 0.001259
645 K | 0.001139
647 K | 0.001209
648 K | 0.001336
653 K | 0.001297
654 K | 0.001492
657 K | 0.0016
658 K | 0.001448
663 K | 0.001584
664 K | 0.001751
666 K | 0.00184
668 K | 0.001751
669 K | 0.001896
670 K | 0.001974
673 K | 0.001878
675 K | 0.002096
676 K | 0.001974
682 K | 0.00234
684 K | 0.002203

[F][Pb][F] [lead(II) fluoride]
Conditions | vapor or sublimation pressure
793 K | 0.000361 kPa
798 K | 0.000411 kPa
803 K | 0.000411 kPa
808 K | 0.000454 kPa
810 K | 0.000454 kPa
811 K | 0.000487 kPa
816 K | 0.000522 kPa
818 K | 0.000554 kPa
820 K | 0.000554 kPa
824 K | 0.000613 kPa
825 K | 0.000613 kPa
827 K | 0.000613 kPa
830 K | 0.000638 kPa
833 K | 0.000664 kPa
835 K | 0.000705 kPa
837 K | 0.000748 kPa
840 K | 0.000771 kPa
841 K | 0.000748 kPa
845 K | 0.000861 kPa and 0.000827 kPa
846 K | 0.000827 kPa
852 K | 0.000951 kPa
854 K | 0.00098 kPa
856 K | 0.00101 kPa
858 K | 0.00098 kPa
859 K | 0.00098 kPa
863 K | 0.001116 kPa
867 K | 0.001185 kPa and 0.001116 kPa
868 K | 0.001234 kPa
873 K | 0.001323 kPa and 0.001284 kPa
875 K | 0.001323 kPa
876 K | 0.001284 kPa
878 K | 0.001391 kPa
882 K | 0.001507 kPa
883 K | 0.001477 kPa
884 K | 0.001419 kPa
886 K | 0.001507 kPa
890 K | 0.001632 kPa
891 K | 0.001682 kPa
895 K | 0.001716 kPa
899 K | 0.00184 kPa
900 K | 0.001896 kPa
903 K | 0.001916 kPa
904 K | 0.001916 kPa
905 K | 0.001896 kPa
910 K | 0.002138 kPa and 0.002117 kPa
912 K | 0.002075 kPa
913 K | 0.002096 kPa
914 K | 0.002203 kPa
919 K | 0.002387 kPa
921 K | 0.002411 kPa
923 K | 0.002387 kPa
928 K | 0.002638 kPa
931 K | 0.002664 kPa
933 K | 0.002746 kPa
934 K | 0.002801 kPa
948 K | 0.003456 kPa
951 K | 0.003669 kPa
